Like-named read-outs stand apart in the source and are kept apart here.
How the values were obtained:
MOLM-13 cells = experiment: Proliferation assay, MOLM-13 (CellTiter-Glo, 7 days); assay type: cell-based, human
Method in brief: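 Cells seeded at 125 (MOLM-13), 300 (MV4;11), 75 (OCI-AML3) or 200 (HEL) per well were exposed to 3.16-fold compound dilutions (0.1% DMSO) for 7 days at 37° C. Viability by CellTiter-Glo luminescence, normalized to DMSO (100%) and day-0 plate (0%); IC50 from one-site dose-response fit.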

[1] = Human hepatocyte intrinsic clearance assay; assay type: in vitro ADME; details: human hepatocytes
Protocol: Human hepatocytes (LiverPool™ 10-Donor Human hepatocytes (Mixed Gender, PEG-free, Product No. S01205, 5 million cells per vial) were obtained from BioreclamationIVT. DMSO was sourced from Solarbio S&T Co Ltd. Leibovitz's L-15 Medium, Williams' Medium E, GlutaMAX™-1 (100×), HEPES, DPBS (10×) and Human Recombinant Insulin Solution were purchased from Gibco. Isotonic Percoll Solution was purchased from GE Healthcare. Fetal Bovine Serum (FBS) was purchased from Corning.
10 mM dexamethasone stock solution was prepared by dissolving 3.9 mg dexamethasone in 1 mL of DMSO. An Isotonic Percoll Solution was prepared by dilution of Percoll with DPBS (10×). 15 mL of Isotonic Percoll Solution (90% Percoll/10% DPBS) was added to 31.25 mL William's E medium containing 500 mL of GlutaMAX™-1 (100×), 750 mL of 1M HEPES, 2.5 mL of 5% FBS, 50 mL of 4 mg/mL Human Recombinant Insulin Solution and 5 mL of the 10 mM dexamethasone stock.
2 mL of 10 mM DMSO stock solutions of test compound were added to 198 mL acetonitrile to produce 100 mmol/L concentration.
The human hepatocyte vial was thawed at 37° C. in a waterbath. Once thawed, contents were poured into a 50 mL conical tube and centrifuged at 100 g for 10 minutes. The thawing medium was poured out and 4 mL L-15 medium was added. The tube was gently shaken to resuspend the hepatocytes and cells were counted with an appropriate cell counter. 247.5 mL of the hepatocyte suspension was transferred into each well of the plate and pre-warmed at 600 rpm and 50° C. to enable the temperature to rise to 37° C.
2.5 mL of the […] test compound solution was added to initiate the reaction (final concentration […]) and incubated at 37° C. with shaking at 900 rpm. At 0.5, 5, 15, 30, 45, 60, 80, 100 and 120 minutes, 20 mL was taken into a quenching solution of acetonitrile containing internal standards. The mix was vortexed at 800 rpm for 2 minutes followed by centrifugation for 20 minutes at 4000 rpm at 4° C. 40 mL of supernatant was transferred into a 96 well analysis plate containing 160 mL of water in each well. The analysis plate was shaken at 100 rpm for 2 minutes prior to analysis by LC-MS/MS.
Peak areas were determined from extracted ion chromatograms. Percent parent remaining was calculated from peak area of test compound. The slope value, k, was determined by linear regression of the natural logarithm of percent parent remaining versus incubation time.
The in vitro intrinsic clearance (in vitro CLint in mL/min/10^6 cells) was determined from the slope value using the following equation: […]
where V is the incubation volume (0.25 mL) and N is the number of hepatocytes per well (0.25×10^6 cells).

SMILES	IC50 (MOLM-13 cells; Homo sapiens, MOLM-13, 168 h) [nM]	HH CLint [1] [μl/min/1E6]	IC50 (MOLM-13 cells) [nM]
CC(C)N(C(=O)c1cc(F)ccc1-n1cc(C(=O)C2CN(C(=O)[C@H]3NC4CCC3CC4)C2)c2ccncc21)C(C)C [Example 6, (S)-2-(3-(1-(2-Azabicyclo[2.2.2]octane-3-carbonyl)azetidine-3-carbonyl)-1H-pyrrolo[2,3-c]pyridin-1-yl)-5-fluoro-N,N-diisopropylbenzamide]	73	–	–
CC(C)N(C(=O)c1cc(F)ccc1-n1cc(C(=O)C2CCN(C(=O)[C@@H]3CCC(C)(C)N3)CC2)c2ccncc21)C(C)C [Example 27, (S)-2-(3-(1-(5,5-Dimethylpyrrolidine-2-carbonyl)piperidine-4-carbonyl)-1H-pyrrolo[2,3-c]pyridin-1-yl)-5-fluoro-N,N-diisopropylbenzamide]	38	<1.0	–
CC(C)N(C(=O)c1cc(F)ccc1-n1cc(C(=O)[C@H]2CCN(C[C@H]3CC[C@H](NS(C)(=O)=O)CC3)C2)c2ccncc21)C(C)C [Example 1, 5-Fluoro-N,N-diisopropyl-2-(3-((S)-1-(((1r,4S)-4-(methylsulfonamido)-cyclohexyl)methyl)pyrrolidine-3-carbonyl)-1H-pyrrolo[2,3-c]pyridin-1-yl)benzamide]	149	2.6	–
CC(C)N(C(=O)c1cc(F)ccc1-n1cc(C(=O)[C@@H]2CCN(C[C@H]3CC[C@H](NS(C)(=O)=O)CC3)C2)c2ccncc21)C(C)C [Example 4, 5-Fluoro-N,N-diisopropyl-2-(3-((R)-1-(((1r,4R)-4-(methylsulfonamido)-cyclohexyl)methyl)pyrrolidine-3-carbonyl)-1H-pyrrolo[2,3-c]pyridin-1-yl)benzamide]	156	2.3	–
CC(C)N(C(=O)c1cc(F)ccc1-n1cc(C(=O)C2CCN(C(=O)[C@@H]3CCC4(CC4)N3)CC2)c2ccncc21)C(C)C [Example 24, (S)-2-(3-(1-(4-Azaspiro[2.4]heptane-5-carbonyl)piperidine-4-carbonyl)-1H-pyrrolo[2,3-c]pyridin-1-yl)-5-fluoro-N,N-diisopropylbenzamide]	32	4.1	–
CC(C)N(C(=O)c1cc(F)ccc1-n1cc(C(=O)C2CCN(C(=O)[C@H]3NC[C@@H]4C[C@@H]43)CC2)c2ccncc21)C(C)C [Example 19, 2-(3-(1-((1S,2S,5R)-3-Azabicyclo[3.1.0]hexane-2-carbonyl)piperidine-4-carbonyl)-1H-pyrrolo[2,3-c]pyridin-1-yl)-5-fluoro-N,N-diisopropylbenzamide]	34	3.6	–
CCN(C(=O)c1cc(F)ccc1-n1c(C)c(C(=O)[C@@H]2CCN(C(=O)[C@@H]3CCC4(CC4)N3)[C@@H](C)C2)c2ccncc21)C(C)C (single isomer, unassigned) [Example 52-1, N-Ethyl-5-fluoro-N-isopropyl-2-(2-methyl-3-((2R*,4S*)-2-methyl-1-((S)-4-azaspiro[2.4]heptane-5-carbonyl)piperidine-4-carbonyl)-1H-pyrrolo[2,3-c]pyridin-1-yl)benzamide]	–	4.1	–
CCN(C(=O)c1cc(F)ccc1-n1cc(C(=O)C2CN(C(=O)[C@H]3N[C@@H]4CC[C@H]3C4)C2)c2ccncc21)C(C)C [Example 8, 2-(3-(1-((1R,3S,4S)-2-Azabicyclo[2.2.1]heptane-3-carbonyl)azetidine-3-carbonyl)-1H-pyrrolo[2,3-c]pyridin-1-yl)-N-ethyl-5-fluoro-N-isopropylbenzamide]	142	–	–
CC(C)(F)c1ncccc1-c1cc(F)ccc1-n1cc(C(=O)C2CN(C(=O)[C@H]3N[C@@H]4CC[C@H]3C4)C2)c2ccncc21 [Example 13, (1-((1R,3S,4S)-2-Azabicyclo[2.2.1]heptane-3-carbonyl)azetidin-3-yl)(1-(4-fluoro-2-(2-(2-fluoropropan-2-yl)pyridin-3-yl)phenyl)-1H-pyrrolo[2,3-c]pyridin-3-yl)methanone]	51	–	–
CCN(C(=O)c1cc(F)ccc1-n1cc(C(=O)C2CCN(C(=O)[C@H]3N[C@H]4C[C@@H]3[C@@H](F)C4)CC2)c2ccncc21)C(C)C [Example 30, N-Ethyl-5-fluoro-2-(3-(1-((1S,3S,4S,5S)-5-fluoro-2-azabicyclo[2.2.1]heptane-3-carbonyl)piperidine-4-carbonyl)-1H-pyrrolo[2,3-c]pyridin-1-yl)-N-isopropylbenzamide]	44	–	–
C[C@@H]1CCC[C@H](C)N1C(=O)c1cc(F)ccc1-n1cc(C(=O)C2CCN(C(=O)[C@H]3N[C@@H]4CC[C@H]3C4)CC2)c2ccncc21 [Example 33, (1-((1R,3S,4S)-2-Azabicyclo[2.2.1]heptane-3-carbonyl)piperidin-4-yl)(1-(2-((2R,6S)-2,6-dimethylpiperidine-1-carbonyl)-4-fluorophenyl)-1H-pyrrolo[2,3-c]pyridin-3-yl)methanone]	111	–	–

Continued, values first:

IC50 (MOLM-13 cells; Homo sapiens, MOLM-13, 168 h) [nM]	HH CLint [1] [μl/min/1E6]	IC50 (MOLM-13 cells) [nM]	SMILES
52	–	–	Cc1c(C(=O)[C@@H]2CCN(C(=O)[C@@H]3CC[C@H](C)N3)[C@@H](C)C2)c2ccncc2n1-c1ccc(F)cc1C(=O)N(C(C)C)C(C)C (stereo in doubt) [Example 62, 5-Fluoro-N,N-diisopropyl-2-(2-methyl-3-((2S,4RS)-2-methyl-1-((2S,5S)-5-methylpyrrolidine-2-carbonyl)piperidine-4-carbonyl)-1H-pyrrolo[2,3-c]pyridin-1-yl)benzamide]
–	4.2	25	Cc1c(C(=O)C2CCN(C(=O)[C@H]3NC[C@@H]4C[C@@H]43)CC2)c2ccncc2n1-c1ccc(F)cc1C(=O)N(C(C)C)C(C)C (single isomer, unassigned) [Example 55-2]
53	–	–	Cc1c(C(=O)[C@@H]2CCN(C(=O)[C@@H]3CC[C@@H](C)N3)[C@@H](C)C2)c2ccncc2n1-c1ccc(F)cc1C(=O)N(C(C)C)C(C)C (stereo in doubt) [Example 64, 5-Fluoro-N,N-diisopropyl-2-(2-methyl-3-((2S,4RS)-2-methyl-1-((2S,5R)-5-methylpyrrolidine-2-carbonyl)piperidine-4-carbonyl)-1H-pyrrolo[2,3-c]pyridin-1-yl)benzamide]
–	–	1610	Cc1c(C(=O)C2CCN(C(=O)[C@H]3NC[C@@H]4C[C@@H]43)CC2)c2ccncc2n1-c1ccc(F)cc1C(=O)N(CC(F)(F)F)C(C)C (single isomer, unassigned) [Example 51-1]
73	–	–	CC(C)N(C(=O)c1cc(F)ccc1-n1cc(C(=O)C2CCN(C(=O)[C@H]3N[C@@H]4CC[C@H]3C4)CC2)c2c(F)cncc21)C(C)C.O=CO [Example 44, 2-(3-(1-((1R,3S,4S)-2-Azabicyclo[2.2.1]heptane-3-carbonyl)piperidine-4-carbonyl)-4-fluoro-1H-pyrrolo[2,3-c]pyridin-1-yl)-5-fluoro-N,N-diisopropylbenzamide 1·formic acid]
47	–	–	CCN(C(=O)c1cc(F)ccc1-n1c(C)c(C(=O)[C@@H]2CCN(C(=O)[C@@H]3CC[C@H](C)N3)[C@@H](C)C2)c2ccncc21)C(C)C (stereo in doubt) [Example 63, N-Ethyl-5-fluoro-N-isopropyl-2-(2-methyl-3-((2S,4RS)-2-methyl-1-((2S,5S)-5-methylpyrrolidine-2-carbonyl)piperidine-4-carbonyl)-1H-pyrrolo[2,3-c]pyridine-1-yl)benzamide]
56	–	–	CCN(C(=O)c1cc(F)ccc1-n1c(C)c(C(=O)[C@@H]2CCN(C(=O)[C@@H]3CC[C@@H](C)N3)[C@@H](C)C2)c2ccncc21)C(C)C (stereo in doubt) [Example 65, N-Ethyl-5-fluoro-N-isopropyl-2-(2-methyl-3-((2S,4RS)-2-methyl-1-((2S,5R)-5-methylpyrrolidine-2-carbonyl)piperidine-4-carbonyl)-1H-pyrrolo[2,3-c]pyridin-1-yl)benzamide]
62	–	–	C[C@@H]1COC[C@@H](C)N1C(=O)c1cc(F)ccc1-n1cc(C(=O)C2CCN(C(=O)[C@H]3N[C@@H]4CC[C@H]3C4)CC2)c2ccncc21 [Example 34, (1-((1R,3S,4S)-2-Azabicyclo[2.2.1]heptane-3-carbonyl)piperidin-4-yl)(1-(2-((3R,5R)-3,5-dimethylmorpholine-4-carbonyl)-4-fluorophenyl)-1H-pyrrolo[2,3-c]pyridin-3-yl)methanone]

Reference: patent publication US20240335431A1, “1-H-PYRROLO[2,3-c]PYRIDINE COMPOUNDS” (Acerta Pharma B.V., priority 2023, published 2024)
